# Measurements taken from PMC8092108, “Mycophenolate suppresses inflammation by inhibiting prostaglandin synthases: a study of molecular and experimental drug repurposing” (PeerJ, 2021).
# “And” between values parts separate entries of the source, which are not always exact repeats. Equal values may be shown once. Read-outs that look alike come from different tables or passages of the source.
# Columns and labels:
# [1] = tested on: carrageenan-induced paw edema; assay: Carrageenan-induced rat paw edema test; assay type: in vivo; parameters: key to Tukey's test Summary: Significant (s); non-significant (ns); conditions: for Tukey's test Significant? / Tukey's test Summary: mean paw size 3–5 h; for Rat paw size: individual rats 1-7
# Method: The in vivo assay was performed by the rat paw edema inhibition test as previously described ([Morris, 2003]; [Winter, Risley & Nuss, 1962]). Forty-nine male adult albino rats weighing […] were obtained from the Animal Breeding Center at the College of Veterinary Medicine, King Faisal University, and were randomly divided into seven groups (n = 7/group). The animal groups included the nontreated control group, carrageenan group, and five groups receiving carrageenan and treated with either indomethacin, celecoxib, or MMF at three doses (12.5, 25, and 50 mg/kg). All rats were allowed free access to food and water. All cages were kept in controlled rooms at 25 °C and exposed to a 12-h light/dark cycle. MMF and two reference drugs, indomethacin and celecoxib, were suspended in 1% NaCMC in normal saline. A 1% carrageenan solution in normal saline was injected into the subplantar area of the right hind paw of rats. One hour before injection of carrageenan, rats were given either indomethacin or celecoxib at a dose rate of 10 mg/kg or MMF at three dose levels of 12.5, 25, and 50 mg/kg by oral administration. […] The measurements were blind to avoid measurement bias. The King Faisal University Ethics Committee (approval no. KFU-REC/2020-10-11) approved all animal experiments. Since no samples were taken from rats, there were no anesthesia procedures. The size of the hind paw was only measured in non-anesthetized rats. At the end of the experiment, all rats were euthanized according to the regulations of the King Faisal University Ethics Committee by an overdose of pentobarbital (200 mg/kg IP) and decapitation. The effect of MMF at different doses on relieving rat paw edema was compared with the control and standard NSAID-treated groups. Significant differences were determined by one-way analysis of variance (ANOVA) with Tukey’s post hoc test. All steps were implemented using GraphPad prism software (GraphPad Software, La Jolla, CA, USA).
# [2] = cited from earlier work
# [3] = molecular target: T1, COX-2 (Homo sapiens, UniProt P35354); assay: COX inhibitor screening assay, COX-2; assay type: biochemical
# T1 construct: purchased
# T1 sequence (P35354 18-604): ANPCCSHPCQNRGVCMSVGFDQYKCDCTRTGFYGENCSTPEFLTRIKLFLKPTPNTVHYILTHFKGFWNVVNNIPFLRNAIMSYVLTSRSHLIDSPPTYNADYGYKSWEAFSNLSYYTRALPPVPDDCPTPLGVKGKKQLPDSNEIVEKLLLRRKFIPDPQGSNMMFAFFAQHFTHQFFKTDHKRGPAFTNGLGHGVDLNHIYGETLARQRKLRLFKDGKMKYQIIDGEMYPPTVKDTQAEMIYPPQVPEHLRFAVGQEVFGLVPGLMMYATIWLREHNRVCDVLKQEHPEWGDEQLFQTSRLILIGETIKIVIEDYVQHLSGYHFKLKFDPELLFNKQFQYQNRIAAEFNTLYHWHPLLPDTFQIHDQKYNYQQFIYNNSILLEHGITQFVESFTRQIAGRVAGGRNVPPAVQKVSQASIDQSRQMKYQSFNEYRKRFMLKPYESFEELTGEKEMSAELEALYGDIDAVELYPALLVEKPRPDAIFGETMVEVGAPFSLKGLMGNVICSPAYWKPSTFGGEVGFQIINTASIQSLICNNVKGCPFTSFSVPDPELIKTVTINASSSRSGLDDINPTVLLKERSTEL
# Method: The inhibitory effects of the drugs MMF and MPA on COX-1 and COX-2 were measured using the COX inhibitor screening assay kit and LOX inhibitor screening kit. […] Briefly, the reaction buffer (Tris–HCl buffer, pH 8.0) containing 5 mM EDTA, 2 mM phenol, and 1 µM hematin was measured into test tubes. The test drugs were dissolved in dimethyl sulfoxide and added to the tubes to final concentrations of […]. COX-1 or COX-2 was added to the test tubes and preincubated for 10 min at 37 °C. Arachidonic acid was then added, and the tubes were incubated for 2 min at 37 °C. The enzyme immunoassay was used to measure the concentration of the product prostaglandin F2α (PGF2α). The estimated values were determined after comparison to the predetermined standard curve. The IC50 was determined after three different experiments. The selectivity index was calculated from Eq. (1):
# (1) Selectivity index=IC50COX−1/IC50COX−2
# [4] = tested on: 12-LOX; assay: LOX inhibitor screening kit; assay type: biochemical
# Method: The inhibitory effects of the drugs MMF and MPA on COX-1 and COX-2 were measured using the COX inhibitor screening assay kit and LOX inhibitor screening kit. The assay was performed according to the manufacturer’s directions and previously described methods ([Chowdhury et al., 2008]; [Lee et al., 2004]). Briefly, the reaction buffer (Tris–HCl buffer, pH 8.0) containing 5 mM EDTA, 2 mM phenol, and 1 µM hematin was measured into test tubes. The test drugs were dissolved in dimethyl sulfoxide and added to the tubes to final concentrations of […]. COX-1 or COX-2 was added to the test tubes and preincubated for 10 min at 37 °C. Arachidonic acid was then added, and the tubes were incubated for 2 min at 37 °C. The enzyme immunoassay was used to measure the concentration of the product prostaglandin F2α (PGF2α). The estimated values were determined after comparison to the predetermined standard curve. The IC50 was determined after three different experiments. The selectivity index was calculated from Eq. (1): […]
# [5] = Indomethacin vs. MMF 12.5 mg/kg
smiles,measurement,setting,value
COc1c(C)c2c(c(O)c1C/C=C(\C)CCC(=O)OCCN1CCOCC1)C(=O)OC2 [Mycophenolate mofetil],"Rat paw size at 3, 4 and 5 h after treatment","[1]; 12.5, 25, 50 mg/kg MMF",dose-dependent decrease in edema
same,Rat paw edema 2–5 h after drug administration,"[1]; 12.5, 25 and 50 mg/kg MMF oral",significant decrease
same,Tukey's test Significant?,[1]; Carrageenan vs. MMF 12.5 mg/kg,Yes
same,Tukey's test Summary,[1]; Carrageenan vs. MMF 12.5 mg/kg,s
same,Tukey's test Significant?,[1]; Carrageenan vs. MMF 25 mg/kg,Yes
same,Tukey's test Summary,[1]; Carrageenan vs. MMF 25 mg/kg,s
same,Tukey's test Significant?,[1]; Carrageenan vs. MMF 50 mg/kg,Yes
same,Tukey's test Summary,[1]; Carrageenan vs. MMF 50 mg/kg,s
same,Tukey's test Significant?,[1]; Celecoxib vs. MMF 12.5 mg/kg,No
same,Tukey's test Summary,[1]; Celecoxib vs. MMF 12.5 mg/kg,ns
same,Tukey's test Significant?,[1]; Celecoxib vs. MMF 25 mg/kg,No
same,Tukey's test Summary,[1]; Celecoxib vs. MMF 25 mg/kg,ns
same,Tukey's test Significant?,[1]; Celecoxib vs. MMF 50 mg/kg,No
same,Tukey's test Summary,[1]; Celecoxib vs. MMF 50 mg/kg,ns
same,Tukey's test Significant?,[1]; [5],No
same,Tukey's test Summary,[1]; [5],ns
same,Tukey's test Significant?,[1]; Indomethacin vs. MMF 25 mg/kg,No
same,Tukey's test Summary,[1]; Indomethacin vs. MMF 25 mg/kg,ns
same,Rat paw size,"[1]; MMF 12.5 mg Kg oral, Time (h) 1",0.75 cm (3×) and 0.73 cm (3×) and 0.7 cm
same,Rat paw size,"[1]; MMF 12.5 mg Kg oral, Time (h) 2",0.75 cm (3×) and 0.76 cm (3×) and 0.8 cm
same,Rat paw size,"[1]; MMF 12.5 mg Kg oral, Time (h) 3",0.75 cm and 0.8 cm
same,Rat paw size,"[1]; MMF 25 mg/Kg oral, Time (h) 1",0.74 cm (2×) and 0.75 cm (4×) and 0.77 cm
same,Rat paw size,"[1]; MMF 25 mg/Kg oral, Time (h) 2",0.7 cm (3×) and 0.65 cm and 0.71 cm and 0.75 cm and 0.69 cm
same,Rat paw size,"[1]; MMF 25 mg/Kg oral, Time (h) 3",0.59 cm and 0.6 cm and 0.55 cm (2×) and 0.5 cm and 0.65 cm and 0.57 cm
same,Rat paw size,"[1]; MMF 25 mg/Kg oral, Time (h) 4",0.46 cm and 0.5 cm (2×) and 0.45 cm (2×) and 0.47 cm and 0.48 cm
same,Rat paw size,"[1]; MMF 25 mg/Kg oral, Time (h) 5",0.45 cm (5×) and 0.5 cm and 0.4 cm
same,Rat paw size,"[1]; MMF 25 mg/Kg oral, Time (h) 6",0.57 cm and 0.6 cm (2×) and 0.5 cm and 0.65 cm and 0.55 cm and 0.54 cm
same,Rat paw size,"[1]; MMF 50mg/kg oral, Time (h) 1",0.75 cm
same,Rat paw size,"[1]; MMF 50mg/kg oral, Time (h) 2",0.75 cm and 0.7 cm (3×) and 0.65 cm and 0.66 cm and 0.68 cm
same,Rat paw size,"[1]; MMF 50mg/kg oral, Time (h) 3",0.65 cm (2×) and 0.6 cm (2×) and 0.55 cm and 0.62 cm and 0.58 cm
same,Rat paw size,"[1]; MMF 50mg/kg oral, Time (h) 4",0.55 cm (2×) and 0.5 cm (2×) and 0.52 cm and 0.53 cm and 0.51 cm
same,Rat paw size,"[1]; MMF 50mg/kg oral, Time (h) 5",0.45 cm (3×) and 0.5 cm and 0.46 cm (3×)
same,Rat paw size,"[1]; MMF 50mg/kg oral, Time (h) 6",0.6 cm (3×) and 0.5 cm and 0.65 cm and 0.56 cm and 0.58 cm
same,Rat paw edema after treatment,"[1]; MMF 12.5–50 mg/kg, indomethacin or celecoxib 10 mg/kg oral",significantly relieved
same,Most effective dose in the rat paw edema test,[1]; oral,50 mg/kg
same,Maximal serum concentration (Cmax),"[2]; after 1–2 g oral doses, ref Ferreira et al., 2020",18000 to 20000 ng/mL
same,Conversion to MPA by liver carboxylesterases 1 and 2,"[2]; after oral intake, ref Lamba et al., 2014",completely converted to MPA
same,IC50,[3],0.19 µM
same,IC50,"[4]; printed as 5-LOX in abstract and b38, read-out: IC50 5-LOX",4.47 µM
same,IC50,[4]; read-out: IC50 12-LOX,4.47 µM
